In experiment [1] the target is T1, CD73 (Homo sapiens (Human), UniProt P21589). It counts as biochemical. The note with it: 1 mM NaH2PO4 in enzyme buffer, CD73 0.3 nM, AMP 15 uM.
Description: Compound serial dilutions were pre-spotted into Thermo Nunc assay plate. 50 uL CD73 enzyme buffer (CD73 purchased from R&D system=0.6 nM, 25 mM Tris, pH 7.4, 5 mM MgCl2, 1 mM NaH2PO4) was added into the assay plate and incubate for 15 mins. […] After incubation for 60 mins, the supernatant (20 uL) was transferred into 384-well NUNC plate pre-filled with 60 uL Quench buffer (80% organic and 20% water+0.1% FA) with internal standard. The plate was spun down at 4500 rpm for 20 mins, then 20 uL of supernatant was transferred to another Nunc plate prefilled with 80 uL of water. The samples were analyzed using Rapid fire.
Experiment [2] addresses T1, CD73. As to the kind of experiment: MDA-MB-231 Cell Based CD73 Activity Assay (DMEM). The note with it: MDA-MB-231-GFP cells, DMEM medium with 10% human plasma, 200 uM AMP.

SMILES strings stand for the structures.

T1 sequence (P21589 27-574): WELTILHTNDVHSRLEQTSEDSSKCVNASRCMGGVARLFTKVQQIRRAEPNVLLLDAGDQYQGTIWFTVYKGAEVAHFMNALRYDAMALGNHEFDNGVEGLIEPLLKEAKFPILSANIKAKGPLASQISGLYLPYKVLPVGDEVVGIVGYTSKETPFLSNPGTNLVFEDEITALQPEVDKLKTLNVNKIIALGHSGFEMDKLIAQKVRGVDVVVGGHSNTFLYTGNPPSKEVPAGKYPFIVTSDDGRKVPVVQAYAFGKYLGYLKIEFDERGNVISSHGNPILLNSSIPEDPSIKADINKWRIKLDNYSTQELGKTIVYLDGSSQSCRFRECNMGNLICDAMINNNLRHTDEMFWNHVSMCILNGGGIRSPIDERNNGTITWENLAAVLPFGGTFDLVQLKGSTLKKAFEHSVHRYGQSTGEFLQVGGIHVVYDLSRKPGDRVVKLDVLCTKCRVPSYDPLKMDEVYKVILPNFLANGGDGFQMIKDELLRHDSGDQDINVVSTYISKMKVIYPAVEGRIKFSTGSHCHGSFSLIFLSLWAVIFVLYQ

Broadly, the IC50 is the concentration needed to halve the response being measured. Low readings indicate higher potency, high ones lower potency. As a reminder, the EC50 is the concentration needed to bring the measured effect to its halfway point. `COC(=O)c1ccc(C2CN(c3cc(-c4c[nH]c(=O)[nH]c4=O)nn4ccnc34)C2)cc1` [Example 261, Methyl 4-(1-(6-(2,4-dioxo-1,2,3,4-tetrahydropyrimidin-5-yl)imidazo[1,2-b]pyridazin-8-yl)azetidin-3-yl)benzoate] came in with a half-inhibitory concentration (IC50) against CD73 [1] of 13.9 nM. At CD73 [2], the concentration for a half-maximal effect (EC50) came to 139 nM.

Turning to `O=c1[nH]cc(-c2cc(N3CCC(c4ccc(C(F)(F)F)cc4)C3)c3ncc(F)n3n2)c(=O)[nH]1` (stereo not shown) [Example 262, 5-(3-fluoro-8-(3-(4-(trifluoromethyl)phenyl)pyrrolidin-1-yl)imidazo[1,2-b]pyridazin-6-yl)pyrimidine-2,4(1H,3H)-dione], 73.4 nM corresponded to half-maximal inhibition against CD73 [1] (IC50). In addition, it took 565 nM to reach a half-maximal effect on CD73 [2] (EC50).

For the compound `COC(=O)c1cccc(C2CN(c3cc(-c4c[nH]c(=O)[nH]c4=O)nn4ccnc34)C2)c1` [Example 263, Methyl 3-(1-(6-(2,4-dioxo-1,2,3,4-tetrahydropyrimidin-5-yl)imidazo[1,2-b]pyridazin-8-yl)azetidin-3-yl)benzoate], inhibition on CD73 [1] was half-maximal at 10.7 nM (IC50). Besides, at CD73 [2], the EC50 amounted to 31.4 nM.

Regarding `COC(=O)c1cccc(C2CCN(c3cc(-c4c[nH]c(=O)[nH]c4=O)nn4ccnc34)C2)c1` (stereo not shown) [Example 264, Methyl 3-(1-(6-(2,4-dioxo-1,2,3,4-tetrahydropyrimidin-5-yl)imidazo[1,2-b]pyridazin-8-yl)pyrrolidin-3-yl)benzoate], on CD73 [1], the IC50 stood at 5.59 nM. It took 88 nM to reach a half-maximal effect on CD73 [2] (EC50).

The compound `COC(=O)c1ccc(C2CCN(c3cc(-c4c[nH]c(=O)[nH]c4=O)nn4ccnc34)C2)cc1` (stereo not shown) [Example 265, Methyl 4-(1-(6-(2,4-dioxo-1,2,3,4-tetrahydropyrimidin-5-yl)imidazo[1,2-b]pyridazin-8-yl)pyrrolidin-3-yl)benzoate] registered a concentration for half-maximal inhibition (IC50) against CD73 [1] of 3.22 nM. Further, a half-maximal effect at CD73 [2] (EC50) was put at 77.9 nM.

For `O=c1[nH]cc(-c2cc(N3CC(F)(F)C4(CC4)C3)c3nncn3n2)c(=O)[nH]1` [Example 266, 5-(8-(7,7-difluoro-5-azaspiro[2.4]heptan-5-yl)-[1,2,4]triazolo[4,3-b]pyridazin-6-yl)pyrimidine-2,4(1H,3H)-dione], at CD73 [1], the half-maximal inhibitory concentration (IC50) was found to be 1.93 nM. On CD73 [2], this compound had an EC50 of 13.5 nM.

For `O=C(c1ccc(C2CN(c3cc(-c4c[nH]c(=O)[nH]c4=O)nn4ccnc34)C2)cc1)N1CC(F)(F)C1` [Example 267, 5-(8-(3-(4-(3,3-difluoroazetidine-1-carbonyl)phenyl)azetidin-1-yl)imidazo[1,2-b]pyridazin-6-yl)pyrimidine-2,4(1H,3H)-dione], 34.7 nM corresponded to half-maximal inhibition against CD73 [1] (IC50). The compound also yielded an EC50 on CD73 [2] of 66.6 nM.

Compound `O=C(c1cccc(C2CN(c3cc(-c4c[nH]c(=O)[nH]c4=O)nn4ccnc34)C2)c1)N1CC(F)(F)C1` [Example 268, 5-(8-(3-(3-(3,3-difluoroazetidine-1-carbonyl)phenyl)azetidin-1-yl)imidazo[1,2-b]pyridazin-6-yl)pyrimidine-2,4(1H,3H)-dione] came in with an IC50 against CD73 [1] of 97 nM. The 50% effective concentration (EC50) at CD73 [2] was 135 nM.

Consider `CNC(=O)c1cccc(C2CCN(c3cc(-c4c[nH]c(=O)[nH]c4=O)nn4ccnc34)C2)c1` (stereo not shown) [Example 269, 3-(1-(6-(2,4-dioxo-1,2,3,4-tetrahydropyrimidin-5-yl)imidazo[1,2-b]pyridazin-8-yl)pyrrolidin-3-yl)-N-methylbenzamide], for which 3.62 nM corresponded to half-maximal inhibition at CD73 [1] (IC50). The same compound showed an EC50 on CD73 [2] of 27 nM.

Compound `CNC(=O)c1ccc(C2CCN(c3cc(-c4c[nH]c(=O)[nH]c4=O)nn4ccnc34)C2)cc1` (stereo not shown) [Example 270, 4-(1-(6-(2,4-dioxo-1,2,3,4-tetrahydropyrimidin-5-yl)imidazo[1,2-b]pyridazin-8-yl)pyrrolidin-3-yl)-N-methylbenzamide] came in with an IC50 on CD73 [1] of 1.13 nM. In addition, a half-maximal response at CD73 [2] (EC50) required 13.7 nM.

On CD73 [1], `O=c1[nH]cc(-c2cc([C@H]3C[C@@H]3c3cnc(C(F)(F)F)nc3)c3nccn3n2)c(=O)[nH]1` [Example 272, 5-(8-((1S,2S)-2-(2-(trifluoromethyl)pyrimidin-5-yl)cyclopropyl)imidazo[1,2-b]pyridazin-6-yl)pyrimidine-2,4(1H,3H)-dione] showed a concentration for half-maximal inhibition (IC50) of 9.9 nM. Moreover, on CD73 [2], a half-maximal effect (EC50) was put at 72.6 nM.

The compound `O=c1[nH]cc(-c2cc([C@@H]3C[C@H]3c3cnc(C(F)(F)F)nc3)c3ncc(F)n3n2)c(=O)[nH]1` [Example 273, 5-(3-fluoro-8-((1R,2R)-2-(2-(trifluoromethyl)pyrimidin-5-yl)cyclopropyl)imidazo[1,2-b]pyridazin-6-yl)pyrimidine-2,4(1H,3H)-dione] had a half-inhibitory concentration (IC50) against CD73 [1] of 9.39 nM. Further, the EC50 at CD73 [2] is 58.1 nM.

As to `O=c1[nH]cc(-c2cc(N3CCC4(CCOC4)C3)c3nccn3n2)c(=O)[nH]1` (stereo not shown) [Example 274, 5-(8-(2-oxa-7-azaspiro[4.4]nonan-7-yl)imidazo[1,2-b]pyridazin-6-yl)pyrimidine-2,4(1H,3H)-dione], on CD73 [1], the concentration for half-maximal inhibition (IC50) is 16.5 nM. Besides, on CD73 [2], the EC50 worked out at 39.4 nM.

As for `O=c1[nH]cc(-c2cc(N3CCC4(CCOCC4)C3)c3nccn3n2)c(=O)[nH]1` [Example 275, 5-(8-(8-oxa-2-azaspiro[4.5]decan-2-yl)imidazo[1,2-b]pyridazin-6-yl)pyrimidine-2,4(1H,3H)-dione], at CD73 [1], the IC50 was determined as 8.64 nM. For the same compound, the 50% effective concentration (EC50) at CD73 [2] worked out at 36.2 nM.

On CD73 [1], `N#Cc1ccc([C@H]2C[C@@H]2c2cc(-c3c[nH]c(=O)[nH]c3=O)nn3ccnc23)c(F)c1` [Example 279, 4-((1S,2S)-2-(6-(2,4-dioxo-1,2,3,4-tetrahydropyrimidin-5-yl)imidazo[1,2-b]pyridazin-8-yl)cyclopropyl)-3-fluorobenzonitrile] yielded an IC50 of 1.07 nM. At CD73 [2], this compound displayed an EC50 of 6.64 nM.

For `N#Cc1ccc([C@H]2C[C@@H]2c2cc(-c3c[nH]c(=O)[nH]c3=O)nn3c(F)cnc23)c(F)c1` [Example 310, 4-((1S,2S)-2-(6-(2,4-dioxo-1,2,3,4-tetrahydropyrimidin-5-yl)-3-fluoroimidazo[1,2-b]pyridazin-8-yl)cyclopropyl)-3-fluorobenzonitrile], at CD73 [1], the IC50 was 0.63 nM. This compound also had an EC50 on CD73 [2] of 3.4 nM.

At CD73 [1], `O=c1[nH]cc(-c2cc(N3CCC4(CCCC4)C3)c3nccn3n2)c(=O)[nH]1` [Example 315, 5-(8-(2-azaspiro[4.4]nonan-2-yl)imidazo[1,2-b]pyridazin-6-yl)pyrimidine-2,4(1H,3H)-dione] yielded a half-maximal inhibitory concentration (IC50) of 6.64 nM. Besides, a half-maximal effect on CD73 [2] (EC50) was put at 27.6 nM.

Consider `O=c1[nH]cc(-c2cc([C@H]3C[C@@H]3c3ccc4c(cnn4CC(F)(F)F)c3)c3nccn3n2)c(=O)[nH]1` [Example 316, 5-(8-((1S,2S)-2-(1-(2,2,2-trifluoroethyl)-1H-indazol-5-yl)cyclopropyl)imidazo[1,2-b]pyridazin-6-yl)pyrimidine-2,4(1H,3H)-dione], for which, on CD73 [1], it took 0.65 nM to reach half-maximal inhibition (IC50). This compound had an EC50 on CD73 [2] of 1.21 nM.

Turning to `O=c1[nH]cc(-c2cc([C@H]3C[C@@H]3c3ccc4c(cnn4CC(F)(F)F)c3)c3ncc(F)n3n2)c(=O)[nH]1` [Example 317, 5-(3-fluoro-8-((1S,2S)-2-(1-(2,2,2-trifluoroethyl)-1H-indazol-5-yl)cyclopropyl)imidazo[1,2-b]pyridazin-6-yl)pyrimidine-2,4(1H,3H)-dione], the half-inhibitory concentration (IC50) at CD73 [1] came out at 1.01 nM. Besides, at CD73 [2], the EC50 came to 2 nM.

For `O=c1[nH]cc(-c2cc([C@H]3C[C@@H]3c3ccc4cnn(CC(F)(F)F)c4c3)c3nccn3n2)c(=O)[nH]1` [Example 318, 5-(8-((1S,2S)-2-(1-(2,2,2-trifluoroethyl)-1H-indazol-6-yl)cyclopropyl)imidazo[1,2-b]pyridazin-6-yl)pyrimidine-2,4(1H,3H)-dione], the half-inhibitory concentration (IC50) against CD73 [1] came out at 0.43 nM. Besides, the EC50 at CD73 [2] was determined as 0.06 nM.

For the origin of these results see patent US20240043427A1 (Gilead Sciences, Inc., priority 2020, published 2024).
